The values below come from patent US20080064758A1, “METHOD OF TREATMENT OR PROPHYLAXIS OF DEPRESSION” (MediciNova, Inc., priority 2006, published 2008).

Structures are written as SMILES. Counter-ions that a name gives are not always drawn.

Test [1] deals with reserpine-induced hypothermia. As to the kind of experiment: Antagonism of the reserpine-induced hypothermia. It counts as in vivo, mice. The following applies: given 4 hours after reserpine 2.5 mg/kg i.p.; rectal temperature 90 min after compound. Here is the method:
Antagonism of the Reserpine-Induced Hypothermia
The compounds of a general formula (I) as well as the reference compounds are administered 4 hours after reserpine (2.5 mg/kg i.p.). Rectal temperature is measured 90 minutes after the administration of the compounds to be tested.

The subject of test [2] is apomorphine-induced hypothermia. As to the kind of experiment: Antagonism of apomorphine-induced hypothermia. It counts as in vivo. The following applies: male CD1 mice; i.p.; apomorphine 16 mg/kg s.c.; rectal temperature 30 min after apomorphine. The protocol:
Antagonism of Apomorphine-Induced Hypothermia (A. J. Puech et al., Psychopharmacology (1981) 75(1):84-91)
Male CD1 mice (Charles River) weighing 22-25 g are used in the test. The mice are housed individually in transparent plastic cages. The compounds of a general formula (I) as well as the reference compounds are suspended in 1% aqueous carboxymethylcellulose and administered intraperitoneally (10 ml/kg; 6 mice per dose). Control animals received the vehicle only.
Rectal temperature is measured using a probe carrying a thermoelectric couple (connected to a galvanometer) inserted to a constant depth.
The compounds to be tested as well as the vehicle are administered 30 minutes after basal rectal temperature is measured, and 30 minutes later apomorphine (16 mg/kg) is administered subcutaneously. Rectal temperature is measured again 30 minutes after the administration of apomorphine.
The results are expressed as average rectal temperature of each group, by evaluating the significant differences in temperature between treated and control mice by Student's t test, and are used for calculating the M.A.D., i.e., the minimal active dose.

Test [3] deals with immobility of mice. As to the kind of experiment: Tail suspension. Format: in vivo. As to conditions: 30 mg/kg PO, reference. The protocol: Compounds of a general formula (I) (starting at an initial dose of 30 mg/kg PO, 1 hr pretreatment) were administered to mice (n=5). A reduction of immobility by 50% or more relative to a vehicle-treated control group indicates possible antidepressant activity. Fluoxetine hydrochloride served as a standard reference compound. […] There was a 35% mobility reduction at 100 mg/kg PO, 54% mobility reduction at 10 mg/kg PO and 46% mobility reduction at 1 mg/kg PO.

Turning to `CCOC(=O)COc1cccc([C@@H]2CCC[C@@H](NC[C@H](O)c3cccc(Cl)c3)C2)c1` [Compound A, 3-[(1R,3R)-3-[(2R)-2-(3-chlorophenyl)-2-hydroxyethylamino]cyclohexyl]-phenoxy acetic acid ethyl ester, maleate salt], the “M.A.D. (minimal active dose), antagonism of reserpine-induced hypothermia” value in test [1] is “closer to clenbuterol (0.03 mg/kg i.p.) than salbutamol (3.0 mg/kg i.p.)”.

Turning to `CC(C)(C)NCC(O)c1cc(Cl)c(N)c(Cl)c1` (stereo not drawn) [clenbuterol], the “M.A.D. (minimal active dose), antagonism of apomorphine-induced hypothermia” value in test [2] was determined as 0.03 mg/kg i.p. In addition, in test [1], the “M.A.D. (minimal active dose), antagonism of reserpine-induced hypothermia” value was found to be 0.03 mg/kg i.p.

For the compound `CNCCC(Oc1ccc(C(F)(F)F)cc1)c1ccccc1` (stereo not drawn) [fluoxetine, Fluoxetine hydrochloride], the reduction of immobility in test [3] worked out at 87%.

Take `CC(C)(C)NCC(O)c1ccc(O)c(CO)c1` (stereo not drawn) [salbutamol]: in test [2], the “M.A.D. (minimal active dose), antagonism of apomorphine-induced hypothermia” value stood at 1.0 mg/kg i.p. The “M.A.D. (minimal active dose), antagonism of reserpine-induced hypothermia” value in test [1] was found to be 3.0 mg/kg i.p.
